According to article PMC5640644, “HDX reveals the conformational dynamics of DNA sequence specific VDR co-activator interactions” (Nature Communications, 2017):

Tests used:
BGLAP = BGLAP gene activation assay (BGLAP mRNA, QuantiGene 2.0) in MG-63 cells; format: cell-based, human
Protocol: Human osteosarcoma cells MG-63, (CRL-1427, American Type Culture Collection (ATCC), Manassas, VA), were maintained in EMEM (ATCC 30–2003) + 10% FBS in 5% CO2. For bone gamma-carboxyglutamate protein (BGLAP) expression analysis MG-63 cells, suspended in EMEM (ATCC 30–2003) + 5% charcoal dextran treated FBS, were seeded onto 96-well tissue culture treated plates at 25,000 cells per well. After an overnight incubation the medium was removed and serial dilutions of VDRMs in concentrations ranging from 10 μM to 2 nM in EMEM (ATCC 30–2003) + 5% charcoal dextran treated FBS were added. Following a 24 h incubation the medium was removed and the plates were sealed and stored at −80 °C for later processing. QuantiGene 2.0 Assay Kit (Affymetrix QS0009) was used to quantitate BGLAP and the Housekeeping gene […] mRNA levels. Following the kit instructions, lysis buffer was added to the frozen cells and incubated briefly at 55 °C. A volume of 20 μl of BGLAP probeset (Affymetrix SA-10875-01) or 18 S (Affymetrix SA-10026) in blocking buffer was added to the provided capture plates before adding 80 μl of the cell lysate. The plates were sealed and incubated at 55 °C overnight. Following an overnight incubation the capture plates were washed and the probes amplified following kit instructions. The resulting luminescence signal was detected on an Envision (Perkin Elmer). BGLAP signal was normalized using the 18S signal and the resulting data was fit to a 4-parameter logistics to determine EC50.

TRPV6 = TRPV6 gene activation assay (TRPV6 mRNA, QuantiGene 2.0) in differentiated C2BBe1 cells; format: cell-based, human
Protocol: C2BBe1 (a clone of CaCO2) cells (CRL-2101, American Type Culture Collection, Manassas, VA) were maintained in DMEM (ATCC 30-2002) supplemented with 10% FBS and insulin-transferrin-selenium-G supplement (Invitrogen, Carlsbad, CA). For TRPV6 expression analysis, cells were plated in 96-well tissue culture treated plates (40,000 per well) in differentiation medium (DMEM containing 5% charcoal-stripped FBS and insulin-transferrin-sodium selenite supplement (ITS)). Cells were allowed to differentiate for 6 days with medium replacement every other day before compound treatment. The medium was removed, and serial dilutions of 1,25D3 or VDRMs in concentrations ranging from 10 μM to 2 nM in differentiation medium were added. After 24 h, the medium was removed, and cell plates were sealed and frozen at −80 °C until assayed. QuantiGene 2.0 Assay Kit (Affymetrix QS0009) was used to quantitate TRPV6 and housekeeping gene GUSB mRNA levels. Following the kit instructions, lysis buffer was added to the frozen cells and incubated briefly at 55 °C […]. Following an overnight incubation the capture plates were washed and the probes amplified following kit instructions. The resulting luminescence signal was detected on an Envision plate reader (Perkin Elmer). TRPV6 signal was normalized using the GUSB signal and the resulting data was fit to a 4-parameter logistic to determine EC50 values.

WT Flag-h RXRα = molecular target: T1, WT Flag-h RXRα (human, UniProt P19793 1-462); test: native gel or EMSA; VDR and RXRα mixed at 1:1 molar ratio (about 10 μM); 6% DNA Retardation gel, 0.5X TBE, 150 V, room temperature; ethidium bromide and coomassie staining; conditions: both partners purified
T1 construct: human retinoid X receptor alpha (RXRα), full length; also called retinoid X receptor α; source: baculovirus system, purified (Flag, SEC)
T1 sequence (looked up): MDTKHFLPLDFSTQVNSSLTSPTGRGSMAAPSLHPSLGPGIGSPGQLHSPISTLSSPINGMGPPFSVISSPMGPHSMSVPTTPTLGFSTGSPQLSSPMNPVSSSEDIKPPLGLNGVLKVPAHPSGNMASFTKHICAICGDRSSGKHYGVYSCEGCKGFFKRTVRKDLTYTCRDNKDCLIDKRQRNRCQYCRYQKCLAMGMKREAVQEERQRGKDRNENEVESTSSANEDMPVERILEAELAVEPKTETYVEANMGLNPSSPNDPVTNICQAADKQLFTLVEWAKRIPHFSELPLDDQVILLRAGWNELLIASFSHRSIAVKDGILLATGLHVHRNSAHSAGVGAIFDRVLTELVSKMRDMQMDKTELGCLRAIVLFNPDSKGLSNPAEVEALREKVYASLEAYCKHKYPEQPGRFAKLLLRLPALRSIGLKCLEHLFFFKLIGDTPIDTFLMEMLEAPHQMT

Molecule: C=C1/C(=C\C=C2/CCC[C@]3(C)[C@@H]([C@H](C)CCCC(C)(C)O)CC[C@@H]23)C[C@@H](O)C[C@@H]1O [1,25D3, 1α,25-dihydroxyvitamin D3, reference compound]
- EC50 (BGLAP; Homo sapiens, MG-63, 24 h, read-out: EC50, BGLAP activation): 4.1 nM
- Max. Stim., BGLAP activation (BGLAP; MG-63 cells, fold change over DMSO normalized to 1,25D3 = 100%): 100%
- Max. Stim., TRPV6 activation (TRPV6; C2BBe1 cells, fold change over DMSO normalized to 1,25D3 = 100%): 100%
- EC50 (TRPV6; Homo sapiens, C2BBe1 cells differentiated 6 days, 24 h, average of replicate runs): 9.81 nM

B1: Full-length WT His-hVDR (Δ (151–190)) (receptor, human, UniProt P11473 1-427, looked up)
chain: MEAMAASTSLPDPGDFDRNVPRICGVCGDRATGFHFNAMTCEGCKGFFRRSMKRKALFTCPFNGDCRITKDNRRHCQACRLKRCVDIGMMKEFILTDEEVQRKREMILKRKEEEALKDSLRPKLSEEQQRIIAILLDAHHKTYDPTYSDFITSSDMMDSSSFSNLDLSEEDSDDPSVTLELSQLSMLPHLADLVSYSIQKVIGFAKMIPGFRDLTSEDQIVLLKSSAIEVIMLRSNESFTMDDMSWTCGNQDYKYRVSDVTKAGHSLELIEPLIKFQVGLKKLNLHEEEHVLLMAICIVSPDRPGVQDAALIEAIQDRLSNTLQTYIRCRHPPPGSHLLYAKMIQKLADLRSLNEEHSKQYRCLSFQPECSMKLTPLVLEVFGNEIS
notes: human vitamin D receptor (VDR), full length with residues 151-190 deleted; also called vitamin D receptor; source: baculovirus system, purified (Ni-NTA, SEC)
- binding result (WT Flag-h RXRα): binds
